According to patent US20150175599A1, “FAAH Inhibitors” (Ironwood Pharmaceuticals, Inc., priority 2010, published 2015):

Target: T1, FAAH (Rattus norvegicus, UniProt P97612)
T1 construct: For the assay of FAAH activity in rat brain membrane (RBM) homogenates; tissue Charles River (animals); host or cells: rat whole brain, membrane fraction
T1 sequence (P97612 1-579): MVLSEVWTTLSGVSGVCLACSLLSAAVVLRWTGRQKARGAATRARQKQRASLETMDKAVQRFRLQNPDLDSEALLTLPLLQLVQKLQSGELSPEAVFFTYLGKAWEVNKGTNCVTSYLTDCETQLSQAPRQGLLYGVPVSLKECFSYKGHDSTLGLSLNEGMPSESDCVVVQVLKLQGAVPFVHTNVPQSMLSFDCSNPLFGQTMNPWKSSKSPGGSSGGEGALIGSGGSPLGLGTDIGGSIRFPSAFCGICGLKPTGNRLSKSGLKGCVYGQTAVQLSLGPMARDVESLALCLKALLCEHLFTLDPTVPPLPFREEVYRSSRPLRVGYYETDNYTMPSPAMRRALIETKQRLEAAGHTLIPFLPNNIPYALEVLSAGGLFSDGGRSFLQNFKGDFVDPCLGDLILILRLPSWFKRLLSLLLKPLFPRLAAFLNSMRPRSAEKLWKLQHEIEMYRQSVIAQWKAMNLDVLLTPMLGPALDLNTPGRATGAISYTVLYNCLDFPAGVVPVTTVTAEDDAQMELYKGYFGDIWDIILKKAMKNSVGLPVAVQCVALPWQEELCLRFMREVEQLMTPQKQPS
Assay: FAAH inhibition, rat brain membrane homogenate assay
Type: biochemical
Details: rat brain homogenate; average activity; read-out: Rat Brain Extract FAAH IC50
Procedure: Adult rats (Charles River CD strain, female, 200 g) were anaesthetized with isofluorane and rapidly decapitated. Each brain was quickly removed and chilled in tubes (3 brains per tube) on ice. About 25 mL of “homogenization buffer” (20 mM HEPES buffer, pH 7.0, with 1 mM MgCl2) was added to 15 to 20 g of brain. The brains were homogenized on ice for 1 minute using an Omni GLH homogenizer (Omni International, Marietta, Ga.). The homogenates were then transferred to three centrifuge tubes and centrifuged at 36,500 g for 20 minutes at 4° C. The supernatant was discarded and each pellet was re-suspended in 25 mL homogenization buffer. The re-suspended material was again centrifuged (36,500 g, 20 minutes at 4° C.). Pellets were combined by re-suspension in 10 mL of homogenization buffer and incubated in a 37° C. water bath for 15 minutes. The tubes were then placed on ice for 5 minutes followed by centrifugation at 36,500 g for 20 minutes at 4° C. The supernatant was discarded and the membrane pellets were then re-suspended in 40 mL of “re-suspension buffer” (50 mM Tris-HCl buffer, pH 7.4, containing 1 mM EDTA and 3 mM MgCl2). A Bradford Protein assay was performed to determine protein concentration. The protein was aliquotted into screw cap Cryo tubes each containing −400 μL, flash-frozen in liquid nitrogen and stored at −80° C. until used for the assay. A similar protocol was used to obtain brain membrane homogenates from mice
FAAH activity was assayed in the respective homogenates described herein (Rat brain, Mouse brain or Human brain) with certain of the exemplary compounds described above using a modification of the method of Omeir et al. (1995 Life Sci. 56:1999) and Fowler et al. (1997 J. Pharmacol. Exp. Ther. 283:729). For the assay of FAAH activity in rat brain membrane (RBM) homogenates, RBM homogenates (7 μg protein in 20 μL final volume of 10 mM Tris pH 6.5) were mixed with 180 μL of a mixture of the following: […] unlabelled anandamide (AEA), 0.03 Ci radio labeled anandamide [ethanolamine 1-^3H](40-60 Ci/mmol; product number ART-626, American Radiolabelled Chemicals, St. Louis, Mo.), 1 mg/mL Bovine Serum Albumin (fatty acid-free BSA, electrophoresis grade, Sigma, St. Louis, Mo.), 10 mM Tris-HCl (pH 6.5), and 1 mM EDTA in the presence and absence of test compounds (vehicle was DMSO at a final concentration of 1%) and incubated for 10 minutes at 37° C. Samples were placed on ice to terminate the reactions.
The ^3H-ethanolamine product and un-reacted ^3H-anandamide substrate were then separated by either: (1) using chloroform/methanol extraction or (2) passing the reaction mixture through a glass fiber filter containing activated charcoal. Samples were extracted with chloroform/methanol by adding 0.4 mL of chloroform/methanol (1:1 v/v), vigorously mixing the samples, and separating the aqueous and organic phases by centrifugation. Radioactivity (corresponding to FAAH-catalyzed breakdown of ^3H-anandamide) found in aliquots (0.2 mL) of the aqueous phase was determined by liquid scintillation counting with quench correction. IC50 values were determined as described by Jonsson et al. (2001 Br. J Pharmacol. 133:1263). Alternatively, reactions were purified using a modification of the solid-phase extraction method described by Wilson et al (2003 Anal. Biochem. 318: 270). This method was modified as follows: after reactions were incubated at 37° C. for 10 minutes and chilled on ice, the reaction mixtures were acidified by adding 10 μL of sodium phosphate solution[0.5M (pH 2.0)]. Next, 90 μL aliquots of the acidified reaction mixtures were applied to activated charcoal (that had been previously washed with methanol as described by Wilson et al. (supra)) containing 80 μL of water on top of a glass fiber filter, centrifuged, and the radioactivity in the eluate was counted as described previously by Wilson et al. (supra). […]

SMILES	IC50 [nM]
CNCc1ccc2c(c1)c(C(=O)C(=O)Nc1ccnc(OC)c1)c(C)n2Cc1ccc(Cl)cc1 [Compound 25, 2-(1-(4-chlorobenzyl)-2-methyl-5-((methylamino)methyl)-1H-indol-3-yl)-N-(2-methoxypyridin-4-yl)-2-oxoacetamide]	1000 to 10000
COc1cc(NC(=O)C(=O)c2c(C)n(Cc3ccc(Cl)cc3)c3ccc(CN(C)C)cc23)ccn1 [Compound 26, 2-(1-(4-chlorobenzyl)-5-((dimethylamino)methyl)-2-methyl-1H-indol-3-yl)-N-(2-methoxypyridin-4-yl)-2-oxoacetamide]	100 to 1000
C=Cc1ccc2c(c1)c(C(=O)C(=O)Nc1ccnc(OC)c1)c(C)n2Cc1ccc(Cl)cc1 [Compound 27, 2-(1-(4-chlorobenzyl)-2-methyl-5-vinyl-1H-indol-3-yl)-N-(2-methoxypyridin-4-yl)-2-oxoacetamide]	< 100
COc1cnc2c(c1)c(C(=O)C(=O)Nc1ccnc(OC)c1)c(C)n2Cc1ncc(Cl)cc1Cl [Compound 29, 2-(1-((3,5-dichloropyridin-2-yl)methyl)-5-methoxy-2-methyl-1H-pyrrolo[2,3-b]pyridin-3-yl)-N-(2-methoxypyridin-4-yl)-2-oxoacetamide]	< 100
COc1cc(NC(=O)C(=O)c2c(C)n(Cc3ncc(Cl)cc3Cl)c3ccc(C)cc23)ccn1 [Compound 30, 2-(1-((3,5-dichloropyridin-2-yl)methyl)-2,5-dimethyl-1H-indol-3-yl)-N-(2-methoxypyridin-4-yl)-2-oxoacetamide]	< 100
COc1cc(NC(=O)C(=O)c2c(C)n(Cc3ncc(Cl)cc3Cl)c3ccccc23)ccn1 [Compound 31, 2-(1-((3,5-dichloropyridin-2-yl)methyl)-2-methyl-1H-indol-3-yl)-N-(2-methoxypyridin-4-yl)-2-oxoacetamide]	< 100
COc1ccc(Cn2c(C)c(C(=O)C(=O)Nc3ccnc(OC)c3)c3cc(OC)c(F)cc32)nc1 [Compound 32, 2-(6-fluoro-5-methoxy-1-((5-methoxypyridin-2-yl)methyl)-2-methyl-1H-indol-3-yl)-N-(2-methoxypyridin-4-yl)-2-oxoacetamide]	< 100
COc1cc(NC(=O)C(=O)c2c(C)n(Cc3ncc(Cl)cc3F)c3ccc(C)cc23)ccn1 [Compound 33, 2-(1-((5-chloro-3-fluoropyridin-2-yl)methyl)-2,5-dimethyl-1H-indol-3-yl)-N-(2-methoxypyridin-4-yl)-2-oxoacetamide]	< 100
COc1cnc2c(c1)c(C(=O)C(=O)Nc1ccnc(OC)c1)c(C)n2Cc1ncc(Cl)cc1F [Compound 34, 2-(1-((5-chloro-3-fluoropyridin-2-yl)methyl)-5-methoxy-2-methyl-1H-pyrrolo[2,3-b]pyridin-3-yl)-N-(2-methoxypyridin-4-yl)-2-oxoacetamide]	< 100
COc1cc(NC(=O)C(=O)c2c(C)n(Cc3ccc(Cl)cc3)c3cnccc23)ccn1 [Compound 35, 2-(1-(4-chlorobenzyl)-2-methyl-1H-pyrrolo[2,3-c]pyridin-3-yl)-N-(2-methoxypyridin-4-yl)-2-oxoacetamide]	100 to 1000
COc1cc(NC(=O)C(=O)c2c(C)n(Cc3ccc(Cl)cc3)c3ccc(OC)nc23)ccn1 [Compound 36, 2-(1-(4-chlorobenzyl)-5-methoxy-2-methyl-1H-pyrrolo[3,2-b]pyridin-3-yl)-N-(2-methoxypyridin-4-yl)-2-oxoacetamide]	< 100
COc1cc(NC(=O)C(=O)c2c(C)n(Cc3ccc(Cl)cc3)c3ccncc23)ccn1 [Compound 37, 2-(1-(4-chlorobenzyl)-2-methyl-1H-pyrrolo[3,2-c]pyridin-3-yl)-N-(2-methoxypyridin-4-yl)-2-oxoacetamide]	< 100
COc1cnc2c(c1)c(C(=O)C(=O)Nc1ccnc(OC)c1)c(C)n2Cc1ccc(Cl)cc1 [Compound 38, 2-(1-(4-chlorobenzyl)-5-methoxy-2-methyl-1H-pyrrolo[2,3-b]pyridin-3-yl)-N-(2-methoxypyridin-4-yl)-2-oxoacetamide]	< 100
COc1ccc2c(c1)c(C(=O)C(=O)Nc1ccnc(OC)c1)c(C)n2Cc1ccc(S(C)(=O)=O)cc1 [Compound 39, 2-(5-methoxy-2-methyl-1-(4-(methylsulfonyl)benzyl)-1H-indol-3-yl)-N-(2-methoxypyridin-4-yl)-2-oxoacetamide]	1000 to 10000
COc1ccc(Cn2c(C)c(C(=O)C(=O)Nc3ccnc(OC)c3)c3cc(OC)cnc32)nc1 [Compound 40, 2-(5-methoxy-1-((5-methoxypyridin-2-yl)methyl)-2-methyl-1H-pyrrolo[2,3-b]pyridin-3-yl)-N-(2-methoxypyridin-4-yl)-2-oxoacetamide]	< 100
COc1cnc2c(c1)c(C(=O)C(=O)Nc1ccnc(OC)c1)c(C)n2Cc1ccc(Cl)cn1 [Compound 41, 2-(1-((5-chloropyridin-2-yl)methyl)-5-methoxy-2-methyl-1H-pyrrolo[2,3-b]pyridin-3-yl)-N-(2-methoxypyridin-4-yl)-2-oxoacetamide]	< 100
COc1cnc2c(c1)c(C(=O)C(=O)Nc1ccnc(OC)c1)c(C)n2Cc1ccc(Cl)cc1Cl [Compound 42, 2-(1-(2,4-dichlorobenzyl)-5-methoxy-2-methyl-1H-pyrrolo[2,3-b]pyridin-3-yl)-N-(2-methoxypyridin-4-yl)-2-oxoacetamide]	< 100
COc1ccc(Cn2c(C)c(C(=O)C(=O)Nc3ccnc(OC)c3)c3cc(OC)ccc32)nc1 [Compound 43, 2-(5-methoxy-1-((5-methoxypyridin-2-yl)methyl)-2-methyl-1H-indol-3-yl)-N-(2-methoxypyridin-4-yl)-2-oxoacetamide]	< 100
COc1cc(NC(=O)C(=O)c2c(C)n(Cc3ccc(Cl)cc3)c3cc(OC)c(OC)cc23)ccn1 [Compound 44, 2-(1-(4-chlorobenzyl)-5,6-dimethoxy-2-methyl-1H-indol-3-yl)-N-(2-methoxypyridin-4-yl)-2-oxoacetamide]	< 100
COc1cc(NC(=O)C(=O)c2c(C)n(Cc3ccc(Cl)cc3)c3cccc(OC)c23)ccn1 [Compound 45, 2-(1-(4-chlorobenzyl)-4-methoxy-2-methyl-1H-indol-3-yl)-N-(2-methoxypyridin-4-yl)-2-oxoacetamide]	< 100
COc1ccc2c(c1)c(C(=O)C(=O)Nc1ccnc(OC)n1)c(C)n2Cc1ccc(Cl)cc1 [Compound 46, 2-(1-(4-chlorobenzyl)-5-methoxy-2-methyl-1H-indol-3-yl)-N-(2-methoxypyrimidin-4-yl)-2-oxoacetamide]	< 100
